Test results published in US12668599B2, “Heterobifunctional compounds and methods of treating disease” (Halda Therapeutics OpCo, Inc., priority 2023, dated 2026).

Assays:
VCaP cells = assay: Cellular growth inhibition assay for VCaP cells (CellTiter-Glo 2.0, 72 hours); format: cell-based, human; conditions: CellTiter-Glo 2.0
Experimental: Exemplary compounds were tested for ability to inhibit the proliferation of VCaP cells. VCap cells are a commercially available human prostate cancer cell line.
VCaP cells were purchased from American Type Cell Culture (ATCC Cat #CRL2876) and then seeded on poly-D-lysine coated, black clear-bottom 384-well plates at 5000/well in 25 μL Dulbecco's Modified Eagle Medium (DMEM) supplemented with 10% w/w Fetal bovine serum (FBS) and 1% w/w Pen-Strep. Pen-Strep is a commercially available mixture of penicillin G and streptomycin, which is used in mammalian cell culture media to prevent bacterial contamination. Dulbecco's Modified Eagle Medium (DMEM) supplemented with 10% w/w fetal bovine serum (FBS) and 1% w/w Pen-Strep is herein referred to as Treatment Medium. Following seeding of cells in the plates, the plates were spun at 300×g for 30 seconds, then equilibrated to room temperature for 30 minutes, and then deposited in a humidified tissue culture incubator maintained at 37° C. with 5% CO2.
(§1) At 24 hours after seeding of the cells, dilutions of test compound were prepared in DMSO and dissolved in Treatment Medium, to achieve a final DMSO concentration of 0.5% w/w, thereby providing the Test Compound Solution. A 25 μL aliquot of the Test Compound Solution was added to cells in the well plates. An equal volume of a solution containing DMSO and Treatment Medium was used as a negative control. Following treatment of cells with Test Compound Solution or said equal volume of a solution containing DMSO and Treatment Medium, the plates were spun at 300×g for 30 seconds, and then left in an incubator for 72 hours.
(§2) At the end of the treatment duration, cell viability was quantified with CellTiter-Glo 2.0 reagent (Promega Cat #G9243). For this purpose, plates were equilibrated to room temperature for 30 minutes, and then 25 μL of CellTiter-Glo 2.0 reagent was added to cells in the plate wells. Plates were then agitated on a shaker for two minutes at 500 rpm and subsequently incubated at room temperature for 10 minutes. Following incubation, the plates were spun at 3000×g for 30 seconds, then sealed with an optical adhesive cover, and luminescence readings were measured with an En Vision Plate Reader.
(§3) Data was normalized using zero luminescence for baseline. A four-parameter non-linear regression curve fit was applied to dose-response data in GraphPad Prism data analysis software to determine the half-maximal growth inhibitory concentration (GI50) for each test compound.

[1] = test system: T-Rex 293 cell line SC3 cells having increased expression of androgen receptor protein due to exposure to doxycycline; assay: Cellular growth inhibition, T-Rex 293 SC3 cells with doxycycline-induced androgen receptor (CellTiter-Glo 2.0, 72 hours); format: cell-based; conditions: T-Rex 293 SC3 cells with 10 ng/ml doxycycline (increased androgen receptor expression), 72 hours, CellTiter-Glo 2.0
Experimental: (§4) Ability of the test compounds to inhibit proliferation of the foregoing cell types was evaluated according to the procedures set forth below.
(§5) The doxycycline-inducible androgen receptor protein expressing cell line was established using the following protocol: T-Rex 293 cells were purchased from Invitrogen (Cat #R71007) and transfected using Lipofectamine 2000 with the wild-type androgen receptor protein sequence cloned into the pcDNA4/TO vector. Transfected cells were selected using 400 μg/mL Zeocin (Invitrogen Cat #R25001). Following selection, single clones were raised and maintained in Dulbecco's Modified Eagle Medium (DMEM) supplemented with 10% w/w Tetracycline-free fetal bovine serum (FBS) and 250 μg/mL Zeocin. Clones were analyzed for expression of androgen receptor protein in the presence and absence of 10 ng/ml doxycycline (Sigma Cat #D9891), and a single doxycycline-inducible clone (hereinafter “SC3”) was selected for use in downstream assays.
(§6) The SC3 cells were seeded on poly-D-lysine coated, black clear-bottom 384-well plates at 2500/well, in 25 μL Phenol Red Free Dulbecco's Modified Eagle Medium (DMEM) supplemented with 10% w/w charcoal-dextran treated fetal bovine serum (FBS) and 1% w/w pen-strep, with or without 10 ng/ml doxycycline. Pen-Strep is a commercially available mixture of penicillin G and streptomycin, which is used in mammalian cell culture media to prevent bacterial contamination. Phenol Red Free Dulbecco's Modified Eagle Medium (DMEM) supplemented with 10% w/w charcoal-dextran treated fetal bovine serum (FBS) and 1% w/w pen-strep, with or without 10 ng/mL doxycycline is herein referred to as Treatment Medium. Following seeding of cells in the plates, the plates were spun at 300×g for 30 seconds, then equilibrated to room temperature for 30 minutes, and then deposited in a humidified tissue culture incubator maintained at 37° C. with 5% CO2.
as §1, §2, §3

[2] = test system: T-Rex 293 cell line SC3 cells lacking increased expression of androgen receptor protein; assay: Cellular growth inhibition, T-Rex 293 SC3 cells without doxycycline (CellTiter-Glo 2.0, 72 hours); format: cell-based; conditions: T-Rex 293 SC3 cells not exposed to doxycycline (no increased androgen receptor expression)
Experimental: as §4, §5, §6, §1, §2, §3

SMILES | GI50 (VCaP cells; Homo sapiens, VCaP, 72 h) [nM] | GI50 [1] [nM] | GI50 ([2]; 72 h) [nM] | GI50 (VCaP cells; 72 hours) [nM] | GI50 [2] [nM]
COc1cc(O[C@H]2CC[C@H](NC(=O)c3ccc(N4CCCC5(CCC(c6ccc(C7=N[C@@H](C)c8nnc(C)n8-c8sc(C)c(C)c87)cc6)CC5)C4)nn3)CC2)ccc1C#N (stereo partly drawn) [Compound I-24] | < 500 | < 500 | 1500 to 3000 |  | 
COc1cc(O[C@H]2CC[C@H](NC(=O)c3ccc(N4CCC5(CCN(c6ccc(C7=N[C@@H](C)c8nnc(C)n8-c8sc(C)c(C)c87)cc6Cl)CC5)C4)nn3)CC2)ccc1C#N [Compound I-73, 6-[8-[2-chloro-4-[(9S)-4,5,9,13-tetramethyl-3-thia-1,8,11,12-tetrazatricyclo[8.3.0.0^2,6]trideca-2 (6),4,7,10,12-pentaen-7-yl]phenyl]-2,8-diazaspiro[4.5]decan-2-yl]-N-[4-(4-cyano-3-methoxy-phenoxy)cyclohexyl]pyridazine-3-carboxamide] | < 500 | < 500 | < 500 |  | 
COc1cc(O[C@H]2CC[C@H](NC(=O)c3ccc(N4CCC5(CCC(c6ccc(C7=N[C@@H](C)c8nnc(C)n8-c8sc(C)c(C)c87)cc6F)CC5)C4)nn3)CC2)ccc1C#N (single isomer, unassigned) [Compound I-56] | < 500 | < 500 | < 500 |  | 
COc1cc(O[C@H]2CC[C@H](NC(=O)c3ccc(N4CCC5(CCC(c6ccc(C7=N[C@@H](C)c8nnc(C)n8-c8sc(C)c(C)c87)cc6)CC5)C4)nc3)CC2)ccc1C#N (stereo partly drawn) [Compound I-36] | < 500 | < 500 | < 500 |  | 
COc1cc(O[C@H]2CC[C@H](NC(=O)c3ccc(N4CCC5(CCC(c6ccc(C7=N[C@@H](C)c8nnc(C)n8-c8sc(C)c(C)c87)cn6)CC5)C4)nn3)CC2)ccc1C#N (stereo partly drawn) [Compound I-87] |  | < 500 |  | < 500 | < 500
COc1cc(O[C@H]2CC[C@H](NC(=O)c3ccc(N4CCC5(CCN(c6ccc(C7=N[C@@H](C)c8nnc(C)n8-c8sc(C)c(C)c87)c(F)c6)C5)C4)nn3)CC2)ccc1C#N (stereo partly drawn) [Compound I-93] |  | < 500 |  | < 500 | < 500
COc1cc(O[C@H]2CC[C@H](NC(=O)c3ccc(N4CCC5(CCC(c6ccc(C7=N[C@@H](C)c8nnc(C)n8-c8sc(C)c(C)c87)cc6OC)CC5)C4)nn3)CC2)ccc1C#N (single isomer, unassigned) [Compound I-66] | < 500 | < 500 | < 500 |  | 
COc1cc(O[C@H]2CC[C@H](NC(=O)c3ccc(N4CCC5(CCC(c6ccc(C7=N[C@@H](C)c8nnc(C)n8-c8sc(C)c(C)c87)nc6)CC5)C4)nn3)CC2)ccc1C#N (stereo partly drawn) [Compound I-88] | < 500 | < 500 | < 500 |  | 
COc1cc(O[C@H]2CC[C@H](NC(=O)c3ccc(N4CCC5(CCN(c6ccc(C7=N[C@@H](C)c8nnc(C)n8-c8sc(C)c(C)c87)cc6F)C5)C4)nn3)CC2)ccc1C#N (stereo partly drawn) [Compound I-80] |  | < 500 |  | < 500 | < 500
COc1cc(O[C@H]2CC[C@H](NC(=O)c3ccc(N4CCC5(CCC(c6ccc(C7=N[C@@H](C)c8nnc(C)n8-c8sc(C)c(C)c87)c(Cl)c6)CC5)C4)nn3)CC2)ccc1C#N (stereo partly drawn) [Compound I-65] | 500 to 1500 | < 500 | > 3000 |  | 
COc1cc(O[C@H]2CC[C@H](NC(=O)c3ccc(N4CCC5(CCN(c6ccc(C7=NC(Cc8ncco8)c8nnc(C)n8-c8sc(C)c(C)c87)cc6F)CC5)C4)nn3)CC2)ccc1C#N (single isomer, unassigned) [Compound I-135] |  | < 500 |  | < 500 | < 500
Cc1sc2c(c1C)C(c1ccc(C#CC3CC4(C3)CN(c3ccc(C(=O)N[C@H]5CC[C@H](Oc6ccc(C#N)c(OC(F)(F)F)c6)CC5)nn3)C4)cc1)=NC1(CC1)c1nnc(C)n1-2 [Compound I-7, N-[4-[4-cyano-3-(trifluoromethoxy)phenoxy]cyclohexyl]-6-[6-[2-[4-(4,5,13-trimethylspiro[3-thia-1,8,11,12-tetrazatricyclo[8.3.0.0^2,6]trideca-2 (6),4,7,10,12-pentaene-9,1′-cyclopropane]-7-yl)phenyl]ethynyl]-2-azaspiro[3.3]heptan-2-yl]pyridazine-3-carboxamide] | < 500 | < 500 | < 500 |  | 
COc1cc(O[C@H]2CC[C@H](NC(=O)c3ccc(N4CCC5(CCC(c6ccc(C7=N[C@@H](C)c8nnc(C)n8-c8sc(C)c(C)c87)cc6)CC5)C4)nn3)CC2)ccc1C#N (stereo partly drawn) [Compound I-20] |  | < 500 |  | < 500 | < 500
COc1cc(O[C@H]2CC[C@H](NC(=O)c3cnc(N4CCC5(CCC(c6ccc(C7=N[C@@H](C)c8nnc(C)n8-c8sc(C)c(C)c87)cc6)CC5)C4)nc3)CC2)ccc1C#N (stereo partly drawn) [Compound I-35] | < 500 | < 500 | < 500 |  | 
Cc1sc2c(c1C)C(c1ccc(OC3CC4(CCN(c5ccc(C(=O)NC6CCC(Oc7ccc(C#N)c(OC(F)(F)F)c7)CC6)nn5)CC4)C3)cc1)=N[C@@H](Cc1ncco1)c1nnc(C)n1-2 (stereo partly drawn) [Compound I-16, N-[4-[4-cyano-3-(trifluoromethoxy)phenoxy]cyclohexyl]-6-[2-[4-[(9S)-4,5,13-trimethyl-9-(oxazol-2-ylmethyl)-3-thia-1,8,11,12-tetrazatricyclo[8.3.0.0^2,6]trideca-2 (6),4,7,10,12-pentaen-7-yl]phenoxy]-7-azaspiro[3.5]nonan-7-yl]pyridazine-3-carboxamide] | < 500 | < 500 | < 500 |  | 
COc1cc(O[C@H]2CC[C@H](NC(=O)c3ccc(N4CCC5(CCN(c6ccc(C7=NC(Cc8ncco8)c8nnc(C)n8-c8sc(C)c(C)c87)c(C(F)(F)F)c6)CC5)C4)nn3)CC2)ccc1C#N (stereo partly drawn) [Compound I-136] |  | < 500 | > 3000 | > 3000 | 
COc1cc(O[C@H]2CC[C@H](NC(=O)c3ccc(N4CCC5(CCC(c6ccc(C7=N[C@@H](C)c8nnc(C)n8-c8sc(C)c(C)c87)cc6C)CC5)C4)nn3)CC2)ccc1C#N (stereo partly drawn) [Compound I-61] |  | < 500 |  | < 500 | < 500
Cc1sc2c(c1C)C(c1ccc(C#CC3CC4(C3)CN(c3ccc(C(=O)N[C@H]5CC[C@H](Oc6ccc(C#N)c(OC(F)(F)F)c6)CC5)nn3)C4)cc1)=N[C@@H](C)c1nnc(C)n1-2 [Compound I-12, N-[4-[4-cyano-3-(trifluoromethoxy)phenoxy]cyclohexyl]-6-[6-[2-[4-[(9S)-4,5,9,13-tetramethyl-3-thia-1,8,11,12-tetrazatricyclo[8.3.0.0^2,6]trideca-2 (6),4,7,10,12-pentaen-7-yl]phenyl]ethynyl]-2-azaspiro[3.3]heptan-2-yl]pyridazine-3-carboxamide] | < 500 | < 500 | < 500 |  | 
COc1cc(O[C@H]2CC[C@H](NC(=O)c3ccc(N4CCC5(CCN(c6ccc(C7=NC(Cc8ncco8)c8nnc(C)n8-c8sc(C)c(C)c87)c(C(F)(F)F)c6)CC5)C4)nn3)CC2)ccc1C#N (stereo partly drawn) [Compound I-137] |  | < 500 |  | < 500 | > 3000
